Results from article PMC5884060 (Biochemistry, 2018).
Each block holds one compound with its values, some of them ahead of it.

Columns and labels:
PDIA1 C53A and C397A = type: binding; settings: from IC50 values; PDIA1 C53A and C397A 50 μg/mL in MCF-7 lysates 1 mg/mL, CA-Rh 8 μM
PDIA1 [1] = molecular target: T1, PDIA1 (Homo sapiens, UniProt P07237); test: Insulin turbidity assay; settings: for kinact/KI: 0.5 μM PDIA1, 0.16 mM insulin, 1 mM DTT, varying concentrations and pre-incubation times
[2] = molecular target: T2, purified, recombinant PDIA1 (Homo sapiens, UniProt P07237); test: In-gel fluorescence screen: covalent modification of purified recombinant PDIA1; type: binding; settings: compound 5 μM, PDIA1 50 μg/mL, 1 hour, TAMRA in-gel fluorescence
T2 sequence (P07237 18-508): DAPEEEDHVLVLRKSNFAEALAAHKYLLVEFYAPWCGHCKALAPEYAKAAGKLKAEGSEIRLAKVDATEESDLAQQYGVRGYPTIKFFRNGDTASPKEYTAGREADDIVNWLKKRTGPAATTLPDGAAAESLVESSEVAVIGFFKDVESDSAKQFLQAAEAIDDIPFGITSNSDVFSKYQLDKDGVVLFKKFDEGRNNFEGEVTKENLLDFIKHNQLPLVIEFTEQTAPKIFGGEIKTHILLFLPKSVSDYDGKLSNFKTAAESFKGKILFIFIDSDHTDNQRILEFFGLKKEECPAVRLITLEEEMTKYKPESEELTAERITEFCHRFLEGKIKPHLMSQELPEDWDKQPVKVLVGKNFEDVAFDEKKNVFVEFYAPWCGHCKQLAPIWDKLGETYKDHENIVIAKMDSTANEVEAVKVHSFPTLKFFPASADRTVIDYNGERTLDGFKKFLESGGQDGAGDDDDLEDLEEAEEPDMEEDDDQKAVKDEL

[3] = molecular target: T2, purified, recombinant PDIA1; test: In-gel fluorescence: recombinant PDIA1 in the background of MCF-7 cell lysates; type: binding; settings: PDIA1 50 μg/mL in MCF-7 cell lysates 1 mg/mL
endogenous PDIA1 = endogenous PDIA1 (Homo sapiens, UniProt P07237); test: In-gel fluorescence: endogenous PDIA1 in MCF-7 lysates; type: binding; settings: compound 5 μM, MCF-7 lysates 2 mg/mL
endogenous PDIA1, sequence (P07237 18-508): as above

SKOV-3 = test: qPCR analysis of UPR target genes; type: cell-based; settings: SKOV-3 cells
[4] = tested on: HEK293^Trex cells stably expressing ^FTALLC; test: FTALLC secretion by ELISA; type: cell-based; settings: KSC-34 40 μM, 4 h pretreatment, 2 h conditioning, compared to vehicle
[5] = tested on: HEK293^Trex cells stably expressing ^FTALLC; test: Viability by Cell Titre Glo; type: cell-based; settings: KSC-34 40 μM, Cell Titre Glo after media conditioning
HEK293^DAX cells = test: [35S] metabolic labeling, fraction FTALLC secreted; type: cell-based; settings: KSC-34 40 μM added 1 h prior to labeling and throughout
PDIA1 [6] = molecular target: T1, PDIA1; settings: 5 μM, MCF-7 cells, 3 hours at 37 °C
PDIA1 C53A = PDIA1 C53A (Homo sapiens, UniProt P07237, C53A); settings: KSC-34 5 μM, protein 50 μg/mL, 1 hour
PDIA1 C53A, sequence (P07237 18-508 C53A): as the sequence (P07237 18-508) above, with C36A counted along it

PDIA3 = PDIA3 (Homo sapiens, UniProt P30101); settings: PDIA3 50 μg/mL, with or without MCF-7 lysates 1 mg/mL
PDIA3, sequence (P30101 25-505, species assumed): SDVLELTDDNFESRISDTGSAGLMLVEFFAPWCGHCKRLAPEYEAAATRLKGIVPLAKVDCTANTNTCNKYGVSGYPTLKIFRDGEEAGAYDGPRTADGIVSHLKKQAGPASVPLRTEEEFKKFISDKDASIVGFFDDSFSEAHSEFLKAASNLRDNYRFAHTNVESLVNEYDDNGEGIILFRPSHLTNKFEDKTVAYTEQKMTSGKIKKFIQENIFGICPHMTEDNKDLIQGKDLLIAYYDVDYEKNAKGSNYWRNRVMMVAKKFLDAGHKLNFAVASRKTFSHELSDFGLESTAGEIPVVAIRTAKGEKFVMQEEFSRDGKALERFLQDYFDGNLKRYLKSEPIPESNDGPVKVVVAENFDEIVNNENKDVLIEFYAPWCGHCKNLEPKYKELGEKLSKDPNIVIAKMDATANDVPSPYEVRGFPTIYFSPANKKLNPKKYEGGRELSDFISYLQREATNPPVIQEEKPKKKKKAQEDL

PDIA4 [7] = molecular target: T3, PDIA4 (Homo sapiens, UniProt P13667); settings: PDIA4 50 μg/mL, with or without MCF-7 lysates 1 mg/mL
T3 sequence (P13667 21-645, species assumed): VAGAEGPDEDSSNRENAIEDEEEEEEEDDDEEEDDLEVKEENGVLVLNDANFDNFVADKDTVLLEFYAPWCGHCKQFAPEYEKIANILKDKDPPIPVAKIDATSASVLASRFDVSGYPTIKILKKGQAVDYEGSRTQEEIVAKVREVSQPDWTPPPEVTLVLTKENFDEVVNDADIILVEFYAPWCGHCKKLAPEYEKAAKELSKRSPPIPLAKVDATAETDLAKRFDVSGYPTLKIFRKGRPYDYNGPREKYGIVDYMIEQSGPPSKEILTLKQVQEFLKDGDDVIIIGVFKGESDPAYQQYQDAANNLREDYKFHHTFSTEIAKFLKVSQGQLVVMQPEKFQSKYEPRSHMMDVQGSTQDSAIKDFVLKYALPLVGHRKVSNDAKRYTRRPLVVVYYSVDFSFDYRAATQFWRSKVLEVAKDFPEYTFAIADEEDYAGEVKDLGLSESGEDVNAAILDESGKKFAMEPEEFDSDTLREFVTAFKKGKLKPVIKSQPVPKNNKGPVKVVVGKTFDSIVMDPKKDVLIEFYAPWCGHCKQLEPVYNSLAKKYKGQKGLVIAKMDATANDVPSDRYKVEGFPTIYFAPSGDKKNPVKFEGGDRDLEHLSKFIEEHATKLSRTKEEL

PDIA1 [8] = molecular target: T1, PDIA1; settings: MCF-7 cells, KSC-34 5 μM; ~5 in the DMSO control
PDIA6 = PDIA6 (Homo sapiens, UniProt Q15084); settings: MCF-7 cells, KSC-34 5 μM
PDIA6, sequence (Q15084 20-440): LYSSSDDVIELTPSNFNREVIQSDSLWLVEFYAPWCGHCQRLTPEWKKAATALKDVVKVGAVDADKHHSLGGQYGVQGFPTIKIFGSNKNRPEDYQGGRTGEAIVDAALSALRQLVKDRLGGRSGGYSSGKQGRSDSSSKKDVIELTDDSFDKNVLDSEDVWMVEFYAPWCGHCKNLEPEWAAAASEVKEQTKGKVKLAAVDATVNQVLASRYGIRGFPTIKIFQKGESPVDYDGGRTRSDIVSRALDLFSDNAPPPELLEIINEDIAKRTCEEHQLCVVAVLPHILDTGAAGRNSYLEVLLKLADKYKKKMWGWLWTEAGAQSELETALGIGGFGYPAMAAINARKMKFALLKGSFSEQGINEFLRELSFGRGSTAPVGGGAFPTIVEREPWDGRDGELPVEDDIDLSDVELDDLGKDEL

MCF-7 cells [9] = settings: read-out: EC50 MTT cell viability
MCF-7 cells [10] = tested on: MCF-7 cells
PDIA1 [11] = molecular target: T1, PDIA1; settings: HEK293^DAX cells, KSC-34 40 μM, 1 h pre-treatment
PDIA4 [12] = molecular target: T3, PDIA4; settings: HEK293^DAX cells, KSC-34 40 μM, 1 h pre-treatment
[13] = tested on: HEK293^DAX cells stably expressing PDIA1 shRNA; settings: KSC-34 40 μM, ELISA and [35S] metabolic labeling
[14] = molecular target: prostaglandin E synthase 2 (PTGES2) (Homo sapiens, UniProt Q9H7Z7); test: Proteome-wide target enrichment, LC/LC-MS/MS spectral counts; settings: MCF-7 cells, KSC-34 5 μM
prostaglandin E synthase 2 (PTGES2), sequence (Q9H7Z7 whole entry): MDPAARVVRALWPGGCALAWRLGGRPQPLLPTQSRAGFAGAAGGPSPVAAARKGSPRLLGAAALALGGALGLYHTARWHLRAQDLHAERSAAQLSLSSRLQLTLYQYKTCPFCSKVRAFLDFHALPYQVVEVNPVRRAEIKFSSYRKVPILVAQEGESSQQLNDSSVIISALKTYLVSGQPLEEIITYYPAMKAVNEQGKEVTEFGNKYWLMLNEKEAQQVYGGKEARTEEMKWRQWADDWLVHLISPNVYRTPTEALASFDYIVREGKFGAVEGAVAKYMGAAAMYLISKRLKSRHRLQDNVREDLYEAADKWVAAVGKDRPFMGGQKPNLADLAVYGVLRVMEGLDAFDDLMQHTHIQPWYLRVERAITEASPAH

T1 sequence (P07237 18-508): as the sequence (P07237 18-508) above

kinact/KI (PDIA1 [1]): 252 M⁻¹ s⁻¹
Compound: 16F16 [reference compound]
selectivity for the a domain over the a′ domain (PDIA1 C53A and C397A): 2 fold

covalent modification of PDIA1 relative to RB-11-ca [3]: equal or greater potency to RB-11-ca
potency of PDIA1 modification in living cells compared to RB-11-ca (PDIA1 [6]): ~ 8 fold
labeling of PDIA1 C53A (PDIA1 C53A): absence of fluorescence
labeling of PDIA3 (PDIA3): absence of fluorescence
labeling of PDIA4 (PDIA4 [7]): absence of fluorescence
average spectral counts matched to PDIA1 (PDIA1 [8]): ~ 2000 spectral counts
spectral counts PDIA6 (PDIA6): ~ 20 spectral counts
EC50 (MCF-7 cells [9]): 82 µM
interaction of PDIA1 with FTALLC (co-IP) (PDIA1 [11]): disrupted this interaction
kinact/KI (PDIA1 [1]): 9660 M⁻¹ s⁻¹
potency (kinact/KI) relative to RB-11-ca (PDIA1 [1]; insulin turbidity assay): ~ 3 fold
average spectral counts PTGES2 [14]: ~ 120 spectral counts
Compound: C#CCNc1nc(NCCNC(=O)CCl)nc(N(C)CCCCc2ccccc2)n1 [KSC-34]
covalent modification of PDIA1 relative to RB-11-ca [2]: equal or greater potency compared to RB-11-ca
covalent modification of endogenous PDIA1 relative to RB-11-ca (endogenous PDIA1): equal or greater potency toward PDIA1 compared to RB-11-ca
selectivity for the a domain over the a′ domain (PDIA1 C53A and C397A): 30 fold
effect on IRE1α-dependent UPR transcripts (SKOV-3): no significant effects
reduction of FTALLC levels in conditioned media [4]: 40%
reduction in cellular viability [5]: 20%
reduction of fraction of [35S]-labeled FTALLC secreted (HEK293^DAX cells): 30%
timeframe of IRE1α activation (MCF-7 cells [10]): < 6 h
activation of the PERK and ATF6 arms of the UPR (MCF-7 cells [10]; 4–40 μM, 3 hours at 37 °C): no significant activation
increase in SEC24D and ERDJ4 mRNA levels (MCF-7 cells [10]; >20 μM KSC-34, 3 hours, relative to DMSO): ~ 2 fold
effect on IRE1α-dependent UPR transcripts (A549 cells): no significant effects
interaction of PDIA4 with FTALLC (co-IP) (PDIA4 [12]): does not influence the interaction between these proteins
KSC-34-dependent reduction in FTALLC secretion upon depletion of PDIA1 [13]: attenuated
